Results as given in patent US12252493B2, “Imidazo[1,2-c]pyrimidine derivatives as PRC2 inhibitors for treating cancer” (Mirati Therapeutics, Inc., priority 2019, dated 2025).
Where two headings read alike, the source gives them in different places.

Legend:
[1] = molecular target: purified human, His-tagged PRC2 complex (Homo sapiens (Human), UniProt O75530); experiment: Hot Spot HMT assay of PRC2 enzymatic activity (tritiated methyl transfer from SAM to core histone); type: biochemical; conditions: 10 nM purified PRC2 complex, 0.05 mg/ml core histone H3, 1 uM 3H-SAM, 1 hr at 30° C.
Chain of purified human, His-tagged PRC2 complex (Q15910 whole entry): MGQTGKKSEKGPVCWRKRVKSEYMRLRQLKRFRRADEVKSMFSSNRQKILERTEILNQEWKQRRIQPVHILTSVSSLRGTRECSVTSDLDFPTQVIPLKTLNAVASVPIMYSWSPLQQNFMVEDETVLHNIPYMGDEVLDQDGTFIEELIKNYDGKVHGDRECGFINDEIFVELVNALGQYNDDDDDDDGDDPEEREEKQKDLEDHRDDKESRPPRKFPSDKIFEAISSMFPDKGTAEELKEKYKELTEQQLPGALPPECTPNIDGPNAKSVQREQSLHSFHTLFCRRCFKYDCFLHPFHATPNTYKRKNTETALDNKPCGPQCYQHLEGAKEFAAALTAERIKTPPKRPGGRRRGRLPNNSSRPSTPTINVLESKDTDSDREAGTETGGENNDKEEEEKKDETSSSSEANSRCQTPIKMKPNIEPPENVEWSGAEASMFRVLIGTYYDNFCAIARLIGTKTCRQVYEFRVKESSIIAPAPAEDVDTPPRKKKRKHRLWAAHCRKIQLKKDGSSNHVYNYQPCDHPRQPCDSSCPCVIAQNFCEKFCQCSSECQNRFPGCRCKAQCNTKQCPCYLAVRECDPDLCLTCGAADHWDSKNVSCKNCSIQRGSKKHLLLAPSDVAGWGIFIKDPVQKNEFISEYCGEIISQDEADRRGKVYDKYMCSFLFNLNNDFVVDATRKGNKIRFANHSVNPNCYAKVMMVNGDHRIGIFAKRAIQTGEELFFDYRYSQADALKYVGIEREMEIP
Chain of purified human, His-tagged PRC2 complex (O75530 whole entry): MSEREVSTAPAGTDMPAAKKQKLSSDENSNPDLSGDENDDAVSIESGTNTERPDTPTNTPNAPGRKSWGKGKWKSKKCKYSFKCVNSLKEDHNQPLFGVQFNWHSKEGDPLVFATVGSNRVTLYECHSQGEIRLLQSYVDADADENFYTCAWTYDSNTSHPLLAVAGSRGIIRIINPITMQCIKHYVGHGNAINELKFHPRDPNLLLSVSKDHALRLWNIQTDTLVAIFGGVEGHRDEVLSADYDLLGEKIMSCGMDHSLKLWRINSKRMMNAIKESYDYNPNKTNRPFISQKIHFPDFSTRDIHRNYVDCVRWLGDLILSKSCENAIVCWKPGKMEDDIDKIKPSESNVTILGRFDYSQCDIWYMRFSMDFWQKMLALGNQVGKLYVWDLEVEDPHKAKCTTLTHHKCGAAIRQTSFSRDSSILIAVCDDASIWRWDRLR
Chain of purified human, His-tagged PRC2 complex (Q15022 whole entry partner): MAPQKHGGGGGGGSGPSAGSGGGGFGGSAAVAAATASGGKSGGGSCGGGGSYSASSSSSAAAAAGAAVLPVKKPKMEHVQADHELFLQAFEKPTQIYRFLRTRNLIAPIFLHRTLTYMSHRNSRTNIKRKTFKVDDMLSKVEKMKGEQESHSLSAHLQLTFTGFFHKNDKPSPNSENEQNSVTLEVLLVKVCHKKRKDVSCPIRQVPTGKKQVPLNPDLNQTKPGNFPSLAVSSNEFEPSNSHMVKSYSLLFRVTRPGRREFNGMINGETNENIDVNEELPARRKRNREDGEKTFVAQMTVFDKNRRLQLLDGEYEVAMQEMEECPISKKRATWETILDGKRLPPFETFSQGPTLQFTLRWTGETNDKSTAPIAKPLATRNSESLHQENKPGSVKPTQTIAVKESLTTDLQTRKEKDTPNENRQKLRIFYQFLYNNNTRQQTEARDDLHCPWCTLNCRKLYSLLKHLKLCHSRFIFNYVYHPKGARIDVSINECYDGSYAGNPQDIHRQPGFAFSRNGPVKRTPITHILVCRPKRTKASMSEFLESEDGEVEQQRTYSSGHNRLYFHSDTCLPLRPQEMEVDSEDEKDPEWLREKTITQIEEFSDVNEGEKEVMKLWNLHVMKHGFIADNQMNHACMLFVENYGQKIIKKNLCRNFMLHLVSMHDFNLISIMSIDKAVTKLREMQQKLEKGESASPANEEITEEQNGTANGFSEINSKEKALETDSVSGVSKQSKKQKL
Chain of purified human, His-tagged PRC2 complex (Q6ZN18 whole entry partner): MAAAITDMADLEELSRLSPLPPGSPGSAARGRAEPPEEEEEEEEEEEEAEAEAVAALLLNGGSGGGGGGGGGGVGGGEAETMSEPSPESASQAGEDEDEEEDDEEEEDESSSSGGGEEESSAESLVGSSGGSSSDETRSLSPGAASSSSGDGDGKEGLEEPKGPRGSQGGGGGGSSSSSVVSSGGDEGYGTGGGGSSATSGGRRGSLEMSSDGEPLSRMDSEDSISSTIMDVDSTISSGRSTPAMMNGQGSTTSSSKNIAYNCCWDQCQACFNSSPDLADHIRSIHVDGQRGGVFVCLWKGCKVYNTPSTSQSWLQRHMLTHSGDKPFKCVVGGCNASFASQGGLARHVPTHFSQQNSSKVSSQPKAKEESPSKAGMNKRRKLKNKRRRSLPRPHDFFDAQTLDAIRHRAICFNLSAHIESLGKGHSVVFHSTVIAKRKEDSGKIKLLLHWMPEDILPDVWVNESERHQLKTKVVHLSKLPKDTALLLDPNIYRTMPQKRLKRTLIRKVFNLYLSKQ
Chain of purified human, His-tagged PRC2 complex (Q09028 whole entry partner): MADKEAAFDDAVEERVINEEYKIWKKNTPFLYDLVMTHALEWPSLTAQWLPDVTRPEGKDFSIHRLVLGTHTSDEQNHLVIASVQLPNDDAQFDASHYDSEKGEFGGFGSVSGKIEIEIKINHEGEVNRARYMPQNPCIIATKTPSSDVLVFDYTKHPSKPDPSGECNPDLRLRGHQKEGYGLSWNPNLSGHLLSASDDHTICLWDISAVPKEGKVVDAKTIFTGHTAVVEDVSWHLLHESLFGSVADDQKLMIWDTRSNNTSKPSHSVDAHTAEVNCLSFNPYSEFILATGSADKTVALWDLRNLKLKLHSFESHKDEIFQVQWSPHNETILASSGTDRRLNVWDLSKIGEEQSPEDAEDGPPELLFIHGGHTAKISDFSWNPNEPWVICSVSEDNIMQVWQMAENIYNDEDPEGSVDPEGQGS
How it was run: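 10 nM His-tagged five-subunit PRC2 complex (EZH2, EED, SUZ12, AEBP2, RbAp48) with 0.05 mg/ml core histone H3 in pH 8 Tris buffer, 1% DMSO, preincubated with compound 20 min at 30° C; reaction started with 1 uM [3H]-SAM, 1 hr at 30° C. Filter binding plus scintillation counting; IC50 from 10-point, three-fold dilutions starting at 1.0 μM.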

[2] = test system: PRC2-mediated histone H3 methylation (H3 Lys27 trimethylation) in Pfeiffer cells expressing mutant EZH2 (A677G); experiment: Tri-Methyl Histone H3 (Lys 27) sandwich ELISA in Pfeiffer cells; type: cell-based, human; conditions: Homo sapiens, read-out: IC50, Inhibition of EZH2-mediated Histone H3 Trimethylation
How it was run: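 Pfeiffer DLBCL cells carrying EZH2 A677G were treated for 96 h at 37 °C with 3-fold dilutions, 1 μM to 0.15 nM final. Acid-extracted histones, neutralized, went into a sandwich ELISA for H3K27me3 with HRP/TMB read-out at 450 nm. Values binned A ≤250 nM, B >250–≤500 nM, C >500 nM–≤5 μM.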

[3] = test system: Karpas 422 cells expressing mutant EZH2 (Y641N); experiment: Karpas 422 cell viability (Cell Titre Glo) assay; type: cell-based, human; conditions: Homo sapiens, CTG viability, time point (Day 4, Day 7 or Day 11) not given, read-out: IC50, Inhibiting Proliferation of Cells Expressing an Activating Mutant Form of EZH2
How it was run: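 Cells plated at 1000/well were exposed to final concentrations from 10 μM down to 1.5 nM (3-fold steps) at 37° C. Viability was read by CellTiter-Glo on day 4, 7 or 11; day-11 plates were re-fed with compound on day 7. IC50 reported per time point in binned ranges.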

[4] = read-out: IC50, Inhibition of PRC2-mediated Enzymatic Activity
[5] = Pfeiffer cells, 96 hours incubation, ELISA

| SMILES | IC50 [1, 4] [nM] | IC50 [2, 5] [nM] | IC50 [3] [nM] | IC50 ([1]; IC50, Inhibition of PRC2-mediated Enzymatic Activity) [nM] | IC50 ([2]; Pfeiffer, 96 h) [nM] |
| --- | --- | --- | --- | --- | --- |
| Cc1cc(S(C)(=O)=O)ccc1-c1cnc(NCc2c(F)ccc3c2CCO3)n2cc(C(C)N)nc12 (stereo not drawn) [Example 34, 2-(1-aminoethyl)-N-((5-fluoro-2,3-dihydrobenzofuran-4-yl)methyl)-8-(2-methyl-4-(methylsulfonyl)phenyl)imidazo[1,2-c]pyrimidin-5-amine] | < 250 | < 250 | < 250 | – | – |
| Cc1cc(-c2cnc(NCc3c(F)ccc4c3CCO4)n3cc(C(C)O)nc23)n(C)n1 (stereo not drawn) [Example 7, 1-(8-(1,3-dimethyl-1H-pyrazol-5-yl)-5-(((5-fluoro-2,3-dihydrobenzofuran-4-yl)methyl)amino)imidazo[1,2-c]pyrimidin-2-yl)ethan-1-ol] | < 250 | < 250 | 500 to 5000 | – | – |
| CC(N)c1cn2c(NCc3c(F)ccc4c3CCO4)ncc(-c3cc(C(F)(F)F)nn3C)c2n1 (stereo not drawn) [Example 36, 2-(1-aminoethyl)-N-((5-fluoro-2,3-dihydrobenzofuran-4-yl)methyl)-8-(1-methyl-3-(trifluoromethyl)-1H-pyrazol-5-yl)imidazo[1,2-c]pyrimidin-5-amine] | < 250 | < 250 | < 250 | – | – |
| Cc1cc(-c2cnc(NCc3c(F)ccc4c3CCO4)n3cc(C(N)C4CC4)nc23)n(C)n1 (stereo not drawn) [Example 41, 2-(amino(cyclopropyl)methyl)-8-(1,3-dimethyl-1H-pyrazol-5-yl)-N-((5-fluoro-2,3-dihydrobenzofuran-4-yl)methyl)imidazo[1,2-c]pyrimidin-5-amine] | < 250 | < 250 | < 250 | – | – |
| Cc1cc(-c2cnc(NCc3c(F)ccc4c3CCO4)n3cc(CNCCS(=O)(=O)F)nc23)n(C)n1 [Example 27, 2-(((8-(1,3-dimethyl-1H-pyrazol-5-yl)-5-(((5-fluoro-2,3-dihydrobenzofuran-4-yl)methyl)amino)imidazo[1,2-c]pyrimidin-2-yl)methyl)amino)ethane-1-sulfonyl fluoride] | – | – | 500 to 5000 | 500 to 2000 | 500 to 5000 |
| Cc1ncccc1-c1cnc(NCc2c(F)ccc3c2CCO3)n2cc(CN)nc12 [Example 19, 2-(aminomethyl)-N-((5-fluoro-2,3-dihydrobenzofuran-4-yl)methyl)-8-(2-methylpyridin-3-yl)imidazo[1,2-c]pyrimidin-5-amine] | < 250 | 250 to 500 | < 250 | – | – |
